The values below come from US20210037829A1, “ANTIMICROBIAL COMPOSITIONS FOR SURGICAL APPLICATIONS” (TELEFLEX MEDICAL INCORPORATED, priority 2015, published 2021).

Values joined by “and” are separate entries in the source; they are usually repeats but may differ in a detail not shown here. Equal values may be shown once.

What all share (assay): Time to Kill
Type in all cases: cell-based

Experiment [1] relates to Staphylococcus aureus. The settings on record: 128 ppm; for Exposure time to complete kill: S. aureus, challenge 10^4-10^5 CFU/mL; for Number of Microbial Colonies: Staphylococcus aureus, replicates 1-5. As to the method: (§1) Alexidine and Chlorhexidine, both at a concentration of 128 ppm were exposed to a Gram positive bacteria (Staphylococcus aureus), a Gram negative bacteria (Pseudomonas aeruginosa), and a fungus (Candida albicans). The challenge concentration for each organism was 10^4-10^5 CFU/mL, and the exposure time varied from 0.5-60 minutes. […] Complete kill of all three organisms was observed within 0.5-1 minute of Alexidine exposure.

The subject of experiment [2] is Candida albicans. As to conditions: 128 ppm; for Exposure time to complete kill: C. albicans, challenge 10^4-10^5 CFU/mL; for Number of Microbial Colonies: Candida albicans, replicates 1-5. As to the method:
as §1

The subject of experiment [3] is Pseudomonas aeruginosa. As to conditions: 128 ppm; for Exposure time to complete kill: P. aeruginosa, challenge 10^4-10^5 CFU/mL; for Number of Microbial Colonies: Pseudomonas aeruginosa, replicates 1-5. As for the experimental part:
as §1

Setting [4] is: exposure 0.5 minutes, TNTC = too numerous to count.
[5] abbreviates: exposure 1 minute, TNTC = too numerous to count.
Setting [6] is: exposure 5 minutes, TNTC = too numerous to count.

With `CCCCC(CC)CNC(=N)NC(=N)NCCCCCCNC(=N)NC(=N)NCC(CC)CCCC` (stereo not drawn) [Alexidine], the “Exposure time to complete kill” value in experiment [1], in experiment [2] and in experiment [3] was 0.5 to 1 min throughout. Besides, the “Number of Microbial Colonies” value in experiment [1] (setting [4]) is 0; in experiment [1] (setting [5]) it was 0; in experiment [1] (setting [6]), 0; in experiment [1] (exposure 60 minutes) it was 0; in experiment [2] (setting [4]), 3 and 0 (4×); in experiment [2] (setting [5]) it was 0 (4×) and 1. Also, the “Number of Microbial Colonies” value in experiment [2] (setting [6]), in experiment [2] (exposure 60 minutes), in experiment [3] (exposure 0.5 minutes), in experiment [3] (exposure 1 minute), in experiment [3] (exposure 5 minutes) and in experiment [3] (exposure 60 minutes) was 0 throughout.

As for `[H]/N=C(\N/C(=N/[H])NCCCCCCNC(=N)NC(=N)Nc1ccc(Cl)cc1)Nc1ccc(Cl)cc1` [Chlorhexidine], the “Exposure time to complete kill” value in experiment [1] stood at 60 min; in experiment [2], 60 min; in experiment [3], 5 min. The “Number of Microbial Colonies” value was “TNTC” in experiment [1] (setting [4]); “TNTC” in experiment [1] (setting [5]); “TNTC” in experiment [1] (setting [6]); 1 (2×) and 0 (3×) in experiment [1] (exposure 60 minutes); “TNTC” in experiment [2] (setting [4]); “TNTC” in experiment [2] (setting [5]). The “Number of Microbial Colonies” value is 30 and 20 and 32 and 24 and TNTC in experiment [2] (setting [6]); 0 in experiment [2] (exposure 60 minutes); 7 and 4 and 5 and 2 and 1 in experiment [3] (exposure 0.5 minutes); 1 in experiment [3] (exposure 1 minute); 0 in experiment [3] (exposure 5 minutes); 0 in experiment [3] (exposure 60 minutes).
